Results published in patent US20230414601A1, “INJECTABLE COMPOSITION CONTAINING CASPASE INHIBITOR, AND PREPARATION METHOD THEREFOR” (LG CHEM, LTD., priority 2020, published 2023).

Assay: Test for API loss according to continuous phase
Assay type: physicochemical
Experimental: A dispersed phase was prepared by dissolving a certain amount of the Test Compound (API) in an organic solvent (dichloromethane, DCM), and 1 mL of the prepared dispersed phase was added to each continuous phase and then stirred to measure the amount of the API extracted into the continuous phase.

CC(C)[C@@]1(C(=O)N[C@H]2CC(=O)O[C@]2(O)CF)CC(c2nccc3ccccc23)=NO1 [Test Compound, (R)-N-((2S,3S)-2-(fluoromethyl)-2-hydroxy-5-oxotetrahydrofuran-3-yl)-5-isopropyl-3-(isoquinolin-1-yl)-4,5-dihydroisoxazole-5-carboxamide]
Amount of API extracted into continuous phase (%) (continuous phase 0.01N HCl): 4.0%
Amount of API extracted into continuous phase (%) (continuous phase DW, dispersed phase API in DCM, 1 mL): 3.7%
Amount of API extracted into continuous phase (%) (continuous phase PVA 1 wt %): 24.9%
Amount of API extracted into continuous phase (%) (continuous phase PVA 1 wt % + 1N HCl): 13.1%
Amount of API extracted into continuous phase (%) (continuous phase PVA 5 wt %): 59.3%
